Reference: publication PMC4967831, “Structural dissection of a complex Bacteroides ovatus gene locus conferring xyloglucan metabolism in the human gut” (Open Biology, 2016)

Tests used:
Type in all cases: binding
BoGH43A [1] = target: T1, BoGH43A (Bacteroides ovatus, UniProt A7LXT8); experiment: crystal structure of the complex (soak); too weak to be measured by ITC
T1 construct: gene BACOVA_02654; pET28a construct with N-terminal His6-tag

BoGH43B = target: T2, BoGH43B (Bacteroides ovatus, UniProt A7LXU0); experiment: ITC
T2 construct: gene BACOVA_02656; expressed from pET21a(BoGH43B)
T2 sequence (A7LXU0 24-529): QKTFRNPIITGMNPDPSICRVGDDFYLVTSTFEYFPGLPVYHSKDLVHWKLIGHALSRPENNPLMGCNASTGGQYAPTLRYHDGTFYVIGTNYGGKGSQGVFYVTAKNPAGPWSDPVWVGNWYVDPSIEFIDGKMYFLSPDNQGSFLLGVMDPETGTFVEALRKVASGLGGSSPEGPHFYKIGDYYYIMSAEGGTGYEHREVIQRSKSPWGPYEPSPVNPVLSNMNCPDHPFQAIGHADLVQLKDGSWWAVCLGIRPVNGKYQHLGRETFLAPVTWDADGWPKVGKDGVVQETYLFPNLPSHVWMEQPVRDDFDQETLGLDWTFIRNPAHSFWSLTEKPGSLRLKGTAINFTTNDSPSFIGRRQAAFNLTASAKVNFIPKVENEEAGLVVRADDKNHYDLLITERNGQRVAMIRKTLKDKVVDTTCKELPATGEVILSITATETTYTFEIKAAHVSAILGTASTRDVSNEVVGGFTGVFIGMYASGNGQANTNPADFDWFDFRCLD

BoGH43A [2] = target: T1, BoGH43A; experiment: ITC and crystal structure of the complex
BoGH3B = target: T3, BoGH3B (Bacteroides ovatus, UniProt A7LXU3); experiment: crystal structure; glucose co-purified in the active site
T3 construct: gene BACOVA_02659; expressed from pET21a(GH3B)
T3 sequence (A7LXU3 23-786): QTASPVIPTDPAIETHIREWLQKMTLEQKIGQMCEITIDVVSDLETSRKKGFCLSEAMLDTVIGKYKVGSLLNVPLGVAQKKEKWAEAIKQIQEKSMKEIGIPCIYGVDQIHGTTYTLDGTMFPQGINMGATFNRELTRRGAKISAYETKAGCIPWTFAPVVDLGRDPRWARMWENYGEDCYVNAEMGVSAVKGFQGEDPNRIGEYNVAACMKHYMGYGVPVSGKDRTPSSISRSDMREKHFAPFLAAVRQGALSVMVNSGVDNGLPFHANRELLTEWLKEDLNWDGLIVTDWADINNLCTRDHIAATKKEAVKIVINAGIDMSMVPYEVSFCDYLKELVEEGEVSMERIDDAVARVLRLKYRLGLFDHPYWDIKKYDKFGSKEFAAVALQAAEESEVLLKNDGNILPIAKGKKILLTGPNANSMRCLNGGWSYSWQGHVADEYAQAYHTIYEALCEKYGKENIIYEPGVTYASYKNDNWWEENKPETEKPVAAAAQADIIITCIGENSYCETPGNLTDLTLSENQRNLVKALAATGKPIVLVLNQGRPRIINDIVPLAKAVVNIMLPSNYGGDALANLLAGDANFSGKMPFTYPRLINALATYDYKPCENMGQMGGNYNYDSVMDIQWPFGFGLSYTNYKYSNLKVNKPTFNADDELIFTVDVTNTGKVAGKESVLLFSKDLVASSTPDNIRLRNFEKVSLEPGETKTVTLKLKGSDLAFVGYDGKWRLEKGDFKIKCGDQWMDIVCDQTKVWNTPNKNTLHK

BoGH31 = target: T4, BoGH31 (Bacteroides ovatus, UniProt A7LXT0); experiment: crystal structure of covalent glycosyl-enzyme intermediate (soak)
T4 construct: gene BACOVA_02646; pET-YSBL3C construct with N-terminal His6-tag and 3C-cleavage site
T4 sequence (A7LXT0 22-954): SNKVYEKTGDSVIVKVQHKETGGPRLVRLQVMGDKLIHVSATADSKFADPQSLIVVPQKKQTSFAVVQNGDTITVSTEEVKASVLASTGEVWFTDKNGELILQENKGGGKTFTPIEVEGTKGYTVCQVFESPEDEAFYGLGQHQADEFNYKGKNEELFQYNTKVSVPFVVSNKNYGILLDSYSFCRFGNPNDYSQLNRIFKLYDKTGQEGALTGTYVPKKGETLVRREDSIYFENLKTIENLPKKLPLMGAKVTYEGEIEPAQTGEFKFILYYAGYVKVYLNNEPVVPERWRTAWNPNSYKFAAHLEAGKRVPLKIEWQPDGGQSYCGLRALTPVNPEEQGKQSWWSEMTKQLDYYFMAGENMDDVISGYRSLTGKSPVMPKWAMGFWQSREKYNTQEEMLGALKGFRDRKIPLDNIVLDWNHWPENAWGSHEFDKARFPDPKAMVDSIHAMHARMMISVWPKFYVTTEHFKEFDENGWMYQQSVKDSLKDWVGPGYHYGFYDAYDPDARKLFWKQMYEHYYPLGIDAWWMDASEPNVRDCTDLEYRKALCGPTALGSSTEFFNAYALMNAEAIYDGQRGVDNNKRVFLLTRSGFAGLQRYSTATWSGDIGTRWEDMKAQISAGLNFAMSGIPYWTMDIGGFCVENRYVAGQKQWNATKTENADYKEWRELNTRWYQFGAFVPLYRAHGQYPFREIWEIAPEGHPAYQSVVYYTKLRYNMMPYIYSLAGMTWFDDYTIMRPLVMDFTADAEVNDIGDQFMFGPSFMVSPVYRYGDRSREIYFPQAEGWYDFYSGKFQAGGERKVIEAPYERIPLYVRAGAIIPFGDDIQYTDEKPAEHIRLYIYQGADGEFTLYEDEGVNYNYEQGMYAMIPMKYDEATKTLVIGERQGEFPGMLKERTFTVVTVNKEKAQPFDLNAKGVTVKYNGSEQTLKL

T1 sequence (A7LXT8 21-526): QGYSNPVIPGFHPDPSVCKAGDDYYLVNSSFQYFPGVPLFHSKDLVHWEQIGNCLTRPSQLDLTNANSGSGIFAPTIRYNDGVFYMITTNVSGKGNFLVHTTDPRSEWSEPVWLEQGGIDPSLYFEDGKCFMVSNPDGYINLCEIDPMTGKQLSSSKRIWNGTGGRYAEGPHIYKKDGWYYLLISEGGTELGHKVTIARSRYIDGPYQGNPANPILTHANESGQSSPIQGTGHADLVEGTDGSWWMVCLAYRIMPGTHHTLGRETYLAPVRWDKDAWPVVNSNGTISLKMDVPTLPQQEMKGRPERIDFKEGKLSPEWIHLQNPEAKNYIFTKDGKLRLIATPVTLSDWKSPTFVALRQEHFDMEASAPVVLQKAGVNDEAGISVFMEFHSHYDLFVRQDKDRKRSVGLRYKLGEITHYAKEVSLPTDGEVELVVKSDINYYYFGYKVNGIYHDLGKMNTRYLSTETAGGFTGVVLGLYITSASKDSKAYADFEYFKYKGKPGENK

SMILES: OC[C@@H]1O/C(=N\O)[C@H](O)[C@H]1O [AraLOG, (Z)-L-Arabinonhydroximo-1,4-lactone]
- crystal structure of the complex (soak); too weak to be measured by ITC (BoGH43A [1]): the inhibitor stacking against Tyr187 while also H-bonding directly to the side chains of Glu210 and Glu189

SMILES: OC[C@@H]1NC[C@H](O)[C@H]1O [AraDNJ]
- Kd (BoGH43B): 111 ± 6 µM
- Kd (BoGH43A [2]): 35 ± 4 µM

SMILES: OC[C@H]1O[C@@H](O)[C@H](O)[C@@H](O)[C@@H]1O [glucose]
- crystal structure; glucose co-purified in the active site (BoGH3B): BoGH3B was found to co-purify with glucose in its active site (figure 5b)

SMILES: OC[C@]1(F)O[C@H](F)[C@H](O)[C@@H](O)[C@@H]1O [5FIdoF, 5-fluoro-β-L-idosyl fluoride]
- crystal structure of covalent glycosyl-enzyme intermediate (soak) (BoGH31): 5FIdoF forms an α-glycosidic linkage to the side-chain carboxylate of Asp553
